This is an account of results in publication PMC6332165, “Study of the Relationships between the Structure, Lipophilicity and Biological Activity of Some Thiazolyl-carbonyl-thiosemicarbazides and Thiazolyl-azoles” (Molecules, 2015).

The test system of data set [1] is turpentine oil-induced inflammation. Also noted: method as in PMID 23504664; Leukocytes (L, leukocytes count):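 lower leukocyte count means stronger anti-inflammatory effect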. The conditions noted are these: cited from earlier work; for Leukocytes (L, leukocytes count) / PMN (polymorphonuclear leukocytes, differential leucocyte count): mean ± SD.
Data set [2] can be described thus: Lipophilicity by reversed-phase thin-layer chromatography (RP-TLC), isopropanol-water mobile phase. The conditions noted are these: RP-18F254s TLC, iso-propanol-water 45-65% (v/v); for RM0 (lipophilicity estimation parameter, intercept of RM = RM0 + bC): extrapolated to pure water. Format: physicochemical. On the procedure:
Some of the parameters resulting from a RP-TLC may be associated to the lipophilic character of the analytes. The retention parameters (RM) are calculated by means of well-known Batte-Smith and Westall Equation (1): RM = log (1/RF − 1) (1)
Generally, the RM values determined by RP-TLC are linearly dependent on the concentration of the organic modifier (C) in the mobile phase Equation (2): RM = RM0 + bC (2) where b and RM0 are, respectively, the slope and the intercept of Equation (2). […] Additionally, it has been stated that not only the RM0, but also the slope, b, as a characteristic of the specific hydrophobic surface area of the compounds, can be used as an estimation of lipophilicity. The advantages of TLC methods consist in the small quantity of compounds needed for the determination, and the rapidity and simplicity of the method. Also, they are inexpensive, rapid and easy to perform.
Chromatography was performed on 20 × 20 cm RP-18F254s TLC precoated silica plates (Merck; Darmstadt, Germany). Solutions (1 mg/mL) of the tested compounds were prepared in iso-propanol, and 3 μL aliquots were spotted in duplicate on the plates by hand, 10 mm from the bottom edge and 20 mm apart. The mobile phases were composed of the iso-propanol-water binary mixtures, with a varying content of organic modifier between 45% and 65% (v/v) in 5% increments, as the study compounds differed considerably in their retention. Chromatography was performed in a normal developing chamber at room temperature, the developing distance being 10 cm. The chromatography chamber was saturated with the mobile phase for 30 min before use. After the development (30–60 min), the plates were air dried at room temperature and examined under a UV lamp (λ = 254 nm), and the RF (retardation factor) values were measured manually by a digital caliper. The experiments were performed in triplicate.

Data set [3] deals with nitric oxide (NO) synthesis. Also noted: method as in PMID 23504664; unit not given here. The conditions noted are these: turpentine oil-induced inflammation, mean ± SD; cited from earlier work.
For another data set, the system named is phagocytes. Also noted: method as in PMID 23504664. The conditions noted are these: turpentine oil-induced inflammation, mean ± SD; cited from earlier work.
A further data set concerns oxidative stress. Also noted: method as in PMID 23504664. The conditions noted are these: turpentine oil-induced inflammation, mean ± SD; cited from earlier work.

As for `Cc1ccc(-c2nc(C)c(-c3nnc(S)n3C)s2)cc1` [Th-13], in data set [1], the “Leukocytes (L, leukocytes count)” value is 10,172 ± 331 and the “PMN (polymorphonuclear leukocytes, differential leucocyte count)” value was 80.8 ± 3.0%. Also, in data set [2], the “b (slope of RM = RM0 + bC, specific hydrophobic surface area)” value is −2.672 and the “RM0 (lipophilicity estimation parameter, intercept of RM = RM0 + bC)” value is recorded as 1.565. Also, in data set [3], the “NO (nitric oxide synthesis)” value is reported as 75.451 ± 6.9. For the same molecule, in the data set on phagocytes, the “PA (phagocytic activity)” value was 27.5 ± 0.9 and the “PI (phagocytosis index)” value is recorded as 25.5 ± 2.8%. In addition, in the data set with oxidative stress, the “OSI (oxidative stress index)” value was 4.63 ± 3.6, the “TAR (total antioxidant response)” value was 1.1 ± 0.012 and the “TOS (total oxidative status)” value is reported as 50.886 ± 5.6.

Regarding `Cc1nc(-c2ccc(Br)cc2)sc1-c1nnc(S)n1C` [Th-14], in data set [1], the “Leukocytes (L, leukocytes count)” value is listed as 10,172 ± 520 and the “PMN (polymorphonuclear leukocytes, differential leucocyte count)” value was 75.4 ± 4.5%. For the same molecule, in data set [2], the “b (slope of RM = RM0 + bC, specific hydrophobic surface area)” value is on record as −2.659 and the “RM0 (lipophilicity estimation parameter, intercept of RM = RM0 + bC)” value is recorded as 1.630. Besides, in data set [3], the “NO (nitric oxide synthesis)” value was 86.04 ± 2.9. In the data set with phagocytes, the “PA (phagocytic activity)” value is 23.5 ± 0.9 and the “PI (phagocytosis index)” value is given as 28 ± 2.1%. Further, in the data set on oxidative stress, the “OSI (oxidative stress index)” value is 6.1 ± 4.7, the “TAR (total antioxidant response)” value is on record as 1.097 ± 0.006 and the “TOS (total oxidative status)” value is 66.876 ± 9.7.

`C=CCn1c(S)nnc1-c1sc(-c2ccccc2)nc1C` [Th-15]: in data set [1], the “Leukocytes (L, leukocytes count)” value is listed as 9982.5 ± 81 and the “PMN (polymorphonuclear leukocytes, differential leucocyte count)” value is listed as 77.4 ± 5.1%. Also, in data set [2], the “b (slope of RM = RM0 + bC, specific hydrophobic surface area)” value is on record as −2.905 and the “RM0 (lipophilicity estimation parameter, intercept of RM = RM0 + bC)” value was 1.664. The “NO (nitric oxide synthesis)” value in data set [3] is reported as 71.630 ± 5.9. Further, in the data set with phagocytes, the “PA (phagocytic activity)” value is listed as 29 ± 3.2 and the “PI (phagocytosis index)” value was 24 ± 4.3%. In the data set on oxidative stress, the “OSI (oxidative stress index)” value is on record as 6.32 ± 4.4, the “TAR (total antioxidant response)” value was 1.094 ± 0.006 and the “TOS (total oxidative status)” value is given as 69.171 ± 4.4.

In the case of `C=CCn1c(S)nnc1-c1sc(-c2ccc(C)cc2)nc1C` [Th-16], in data set [1], the “Leukocytes (L, leukocytes count)” value is recorded as 9225 ± 333 and the “PMN (polymorphonuclear leukocytes, differential leucocyte count)” value is 77.4 ± 1.9%. For the same molecule, in data set [2], the “b (slope of RM = RM0 + bC, specific hydrophobic surface area)” value was −2.962 and the “RM0 (lipophilicity estimation parameter, intercept of RM = RM0 + bC)” value is listed as 1.783. Besides, the “NO (nitric oxide synthesis)” value in data set [3] is 63.091 ± 5.1. Further, in the data set with phagocytes, the “PA (phagocytic activity)” value is recorded as 27 ± 1.1 and the “PI (phagocytosis index)” value was 21.2 ± 1.0%. In addition, in the data set on oxidative stress, the “OSI (oxidative stress index)” value is recorded as 6.04 ± 4.1, the “TAR (total antioxidant response)” value was 1.103 ± 0.009 and the “TOS (total oxidative status)” value is given as 66.681 ± 9.1.

As to `C=CCn1c(S)nnc1-c1sc(-c2ccc(Br)cc2)nc1C` [Th-17], in data set [1], the “Leukocytes (L, leukocytes count)” value was 10,147.5 ± 528 and the “PMN (polymorphonuclear leukocytes, differential leucocyte count)” value was 75.4 ± 5.2%. Moreover, in data set [2], the “b (slope of RM = RM0 + bC, specific hydrophobic surface area)” value is listed as −4.737 and the “RM0 (lipophilicity estimation parameter, intercept of RM = RM0 + bC)” value is 2.808. Further, the “NO (nitric oxide synthesis)” value in data set [3] is listed as 60.479 ± 11.8. In addition, in the data set with phagocytes, the “PA (phagocytic activity)” value is reported as 19.5 ± 0.9 and the “PI (phagocytosis index)” value is listed as 15 ± 3.5%. Besides, in the data set with oxidative stress, the “OSI (oxidative stress index)” value is on record as 6.38 ± 5.2, the “TAR (total antioxidant response)” value is 1.093 ± 0.003 and the “TOS (total oxidative status)” value is 69.962 ± 5.2.

With `Cc1nc(-c2ccccc2)sc1-c1nnc(S)o1` [Th-18], in data set [1], the “Leukocytes (L, leukocytes count)” value is 4575 ± 805 and the “PMN (polymorphonuclear leukocytes, differential leucocyte count)” value is 63.7 ± 2.4%. In data set [2], the “b (slope of RM = RM0 + bC, specific hydrophobic surface area)” value is listed as −1.840 and the “RM0 (lipophilicity estimation parameter, intercept of RM = RM0 + bC)” value is 0.540. For the same molecule, in data set [3], the “NO (nitric oxide synthesis)” value is 43.23 ± 3.9. Moreover, in the data set on phagocytes, the “PA (phagocytic activity)” value is recorded as 56 ± 8.6 and the “PI (phagocytosis index)” value was 17 ± 1.9%. In the data set with oxidative stress, the “OSI (oxidative stress index)” value is on record as 6.98 ± 4.1, the “TAR (total antioxidant response)” value is 1.118 ± 0.006 and the “TOS (total oxidative status)” value was 78.089 ± 14.1.

For the molecule `Cc1ccc(-c2nc(C)c(-c3nnc(S)o3)s2)cc1` [Th-19], in data set [1], the “Leukocytes (L, leukocytes count)” value is on record as 7443.75 ± 1172 and the “PMN (polymorphonuclear leukocytes, differential leucocyte count)” value is 72.8 ± 5.0%. Besides, in data set [2], the “b (slope of RM = RM0 + bC, specific hydrophobic surface area)” value was −1.134 and the “RM0 (lipophilicity estimation parameter, intercept of RM = RM0 + bC)” value is 0.286. Also, in data set [3], the “NO (nitric oxide synthesis)” value was 45.198 ± 2.2. Also, in the data set on phagocytes, the “PA (phagocytic activity)” value is given as 13.5 ± 2.78 and the “PI (phagocytosis index)” value is listed as 20 ± 1.5%. Further, in the data set on oxidative stress, the “OSI (oxidative stress index)” value is recorded as 7.13 ± 5.9, the “TAR (total antioxidant response)” value is listed as 1.119 ± 0.009 and the “TOS (total oxidative status)” value is 79.849 ± 12.

As for `Cc1nc(-c2ccc(Br)cc2)sc1-c1nnc(S)o1` [Th-20], in data set [1], the “Leukocytes (L, leukocytes count)” value is recorded as 4837.5 ± 1305 and the “PMN (polymorphonuclear leukocytes, differential leucocyte count)” value is 59.2 ± 5.6%. Besides, in data set [2], the “b (slope of RM = RM0 + bC, specific hydrophobic surface area)” value was −1.283 and the “RM0 (lipophilicity estimation parameter, intercept of RM = RM0 + bC)” value was 0.393. For the same molecule, the “NO (nitric oxide synthesis)” value in data set [3] is 43.288 ± 5.0. In the data set with phagocytes, the “PA (phagocytic activity)” value is 20 ± 1.5 and the “PI (phagocytosis index)” value is recorded as 16 ± 3.0%. Besides, in the data set on oxidative stress, the “OSI (oxidative stress index)” value is listed as 7.32 ± 3.2, the “TAR (total antioxidant response)” value was 1.106 ± 0.003 and the “TOS (total oxidative status)” value is recorded as 81.022 ± 13.2.

Regarding `Cc1nc(-c2ccccc2)sc1-c1nnc(S)s1` [Th-21], in data set [1], the “Leukocytes (L, leukocytes count)” value is listed as 3000 ± 241 and the “PMN (polymorphonuclear leukocytes, differential leucocyte count)” value is listed as 52.6 ± 2.1%. The “anti-inflammatory and antioxidant effects (in words)” value in data set [1] (overall ranking within the series) was “best anti-inflammatory and antioxidant effects”. Further, in data set [2], the “b (slope of RM = RM0 + bC, specific hydrophobic surface area)” value is given as −1.286 and the “RM0 (lipophilicity estimation parameter, intercept of RM = RM0 + bC)” value is 0.620. Further, the “NO (nitric oxide synthesis)” value in data set [3] was 43.737 ± 6.2. In the data set with phagocytes, the “PA (phagocytic activity)” value was 23 ± 1.9 and the “PI (phagocytosis index)” value is recorded as 14.5 ± 4.6%. Further, in the data set with oxidative stress, the “OSI (oxidative stress index)” value is reported as 6.03 ± 4.5, the “TAR (total antioxidant response)” value is 1.114 ± 0.007 and the “TOS (total oxidative status)” value is given as 67.137 ± 10.6.

On to `Cc1ccc(-c2nc(C)c(-c3nnc(S)s3)s2)cc1` [Th-22], for which, in data set [1], the “Leukocytes (L, leukocytes count)” value is given as 5812.5 ± 399 and the “PMN (polymorphonuclear leukocytes, differential leucocyte count)” value is given as 66.4 ± 0.8%. In data set [2], the “b (slope of RM = RM0 + bC, specific hydrophobic surface area)” value is on record as −1.227 and the “RM0 (lipophilicity estimation parameter, intercept of RM = RM0 + bC)” value is reported as 0.701. In addition, the “NO (nitric oxide synthesis)” value in data set [3] is reported as 52.08 ± 8.1. In addition, in the data set with phagocytes, the “PA (phagocytic activity)” value was 23.5 ± 0.9 and the “PI (phagocytosis index)” value is listed as 35 ± 8.2%. For the same molecule, in the data set with oxidative stress, the “OSI (oxidative stress index)” value is given as 5.13 ± 4.9, the “TAR (total antioxidant response)” value is 1.105 ± 0.001 and the “TOS (total oxidative status)” value is given as 56.694 ± 7.9.
